Converted amounts (≈) assume the structure as drawn.

Assay [1] deals with VIM-2 (Veronese metallo-β-lactamase-2) (Escherichia coli, UniProt Q5U7L7). In words: Metallo-β-lactamase enzyme inhibition, standard assay protocol.
Another assay has as its target IMP-1 (Imipenemase-1) (Serratia marcescens, UniProt P52699). The description is as above.
The target of assay [2] is NDM-1 (New Delhi metallo-β-lactamase-1) (Klebsiella pneumoniae, UniProt C7C422). The description is as above.
In assay [3] the target is VIM-1 (Veronese metallo-β-lactamase-1) (Pseudomonas aeruginosa, UniProt A0A0F7KYQ8). Described as above.
A further assay deals with E. coli IMP-4. The experiment in a line: Meropenem MIC, CLSI broth or agar microdilution, strain entry 2. The class given is cell-based.
The test system of assay [4] is Klebsiella pneumoniae NDM-1. In words: Meropenem MIC, CLSI broth or agar microdilution, strain entry 6. Type of assay: cell-based. As to conditions: for Change in MIC value of meropenem: strain entry 6, Klebsiella pneumoniae NDM-1. From the text: (§1) In each case DMSO was used to dissolve inhibitors.
Assay [5] deals with Klebsiella pneumoniae IMP-4. The experiment in a line: Meropenem MIC, CLSI broth or agar microdilution, strain entry 1. Type of assay: cell-based.
For another assay, the system named is E. coli VIM-1. In words: Meropenem MIC, CLSI broth or agar microdilution, strain entry 3. Type of assay: cell-based. As to conditions: for Change in MIC value of meropenem: strain entry 3, E. coli VIM-1.
Source text: as §1

The subject of assay [6] is Klebsiella pneumoniae VIM-1. The experiment in a line: Meropenem MIC, CLSI broth or agar microdilution, strain entry 4. The class given is cell-based.
Assay [7] concerns Klebsiella pneumoniae NDM-1 + DHA + CTX − M-15. In words: Meropenem MIC, CLSI broth or agar microdilution, strain entry 7. Type of assay: cell-based.
Assay [8] relates to Pseudomonas aeruginosa VIM-2. The experiment in a line: Meropenem MIC, CLSI broth or agar microdilution, strain entry 5. The class given is cell-based. Conditions: for Change in MIC value of meropenem: strain entry 5, Pseudomonas aeruginosa VIM-2.
Source text: as §1

IMP-1 (Imipenemase-1), sequence (P52699 19-246, looked up, species assumed): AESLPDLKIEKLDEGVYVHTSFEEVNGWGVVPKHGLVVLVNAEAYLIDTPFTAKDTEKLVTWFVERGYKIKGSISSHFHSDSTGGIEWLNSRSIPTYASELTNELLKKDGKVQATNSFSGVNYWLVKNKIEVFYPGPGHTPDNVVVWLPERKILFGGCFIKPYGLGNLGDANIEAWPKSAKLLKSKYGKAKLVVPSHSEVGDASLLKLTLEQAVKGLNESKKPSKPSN
NDM-1 (New Delhi metallo-β-lactamase-1), sequence (C7C422 29-270, looked up, species assumed): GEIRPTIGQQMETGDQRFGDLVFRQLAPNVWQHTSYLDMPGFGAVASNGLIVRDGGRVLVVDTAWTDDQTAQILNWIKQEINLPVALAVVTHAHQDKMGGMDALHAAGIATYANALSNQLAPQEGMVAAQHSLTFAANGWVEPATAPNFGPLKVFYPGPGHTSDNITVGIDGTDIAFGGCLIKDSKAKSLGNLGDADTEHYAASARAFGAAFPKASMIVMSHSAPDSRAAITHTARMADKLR

Turning to `O=C(O)c1[nH]c2c(Br)csc2c1-c1cc(Cl)cc(Cl)c1` [Example 1, 3-bromo-6-(3,5-dichlorophenyl)-4H-thieno[3,2-b]pyrrole-5-carboxylic acid], the 50% inhibitory concentration (IC50) in assay [1] was 0.0398 µM; at IMP-1 (Imipenemase-1), 1 µM; in [2], 0.0631 µM; in assay [3], 0.631 µM.
Consider `O=C(O)c1[nH]c2c(C3CC3)csc2c1-c1cc(Cl)cc(Cl)c1` [Example 2, 3-cyclopropyl-6-(3,5-dichlorophenyl)-4H-thieno[3,2-b]pyrrole-5-carboxylic acid], for which the “Change in MIC value of meropenem” value in the assay on E. coli IMP-4 (2 mg/L inhibitor) is −2 log2 difference; in the assay with E. coli IMP-4 (4 mg/L inhibitor), −2 log2 difference; in the assay with E. coli IMP-4 (8 mg/L inhibitor), −3 log2 difference; in assay [4] (2 mg/L inhibitor), −1 log2 difference; in assay [4] (4 mg/L inhibitor), −1 log2 difference; in [4] (8 mg/L inhibitor) it was −2 log2 difference. Besides, the “Change in MIC value of meropenem” value is recorded as −2 log2 difference in [5] (2 mg/L inhibitor); −2 log2 difference in assay [5] (4 mg/L inhibitor); −2 log2 difference in [5] (8 mg/L inhibitor); −1 log2 difference in the assay with E. coli VIM-1 (2 mg/L inhibitor); −1 log2 difference in the assay on E. coli VIM-1 (4 mg/L inhibitor); −1 log2 difference in the assay on E. coli VIM-1 (8 mg/L inhibitor). In addition, the “Change in MIC value of meropenem” value in assay [6] (2 mg/L inhibitor) is given as −2 log2 difference; in [6] (4 mg/L inhibitor), −2 log2 difference; in assay [6] (8 mg/L inhibitor), −2 log2 difference; in assay [7] (2 mg/L inhibitor) it was −1 log2 difference; in assay [7] (4 mg/L inhibitor), −2 log2 difference; in [7] (8 mg/L inhibitor) it was −3 log2 difference. Moreover, the “Change in MIC value of meropenem” value in assay [8] (2 mg/L inhibitor), in [8] (4 mg/L inhibitor) and in [8] (8 mg/L inhibitor) was 0 log2 difference each time. For the same molecule, the IC50 in assay [1] was 0.00501 µM; against IMP-1 (Imipenemase-1), 0.0794 µM; in [2], 0.0158 µM; in assay [3], 0.126 µM.
As for `O=C(O)c1cc2scc(Br)c2[nH]1` [Example 3, 3-bromo-4H-thieno[3,2-b]pyrrole-5-carboxylic acid], the half-maximal inhibitory concentration (IC50) was 15.8 µM in assay [1], above 251 µM at IMP-1 (Imipenemase-1), 126 µM in assay [2] and above 251 µM in [3].
With `O=C(O)c1[nH]c2c(Br)csc2c1-c1ccc(F)cc1` [Example 4, 3-Bromo-6-(4-fluorophenyl)-4H-thieno-[3,2-b]pyrrole-5-carboxylic acid], the IC50 is 0.316 µM in [1], 2.51 µM against IMP-1 (Imipenemase-1), 0.2 µM in assay [2] and 5.01 µM in assay [3].
With `O=C(O)c1[nH]c2c(-c3ccc(F)cc3)csc2c1-c1ccc(F)cc1` [Example 5, 3,6-Bis(4-fluorophenyl)-4H-thieno-[3,2-b]pyrrole-5-carboxylic acid], the half-maximal inhibitory concentration (IC50) in assay [1] was 10 µM; on IMP-1 (Imipenemase-1), 2.51 µM; in assay [2] it was 12.6 µM; in assay [3], above 39.8 µM.
For `C=C(C)c1csc2c(-c3ccc(F)cc3)c(C(=O)O)[nH]c12` [Example 6, 3-isopropenyl-6-(4-fluorophenyl)-4H-thieno-[3,2-b]pyrrole-5-carboxylic acid], the “Change in MIC value of meropenem” value was −2 log2 difference in the assay with E. coli IMP-4 (2 mg/L inhibitor); −2 log2 difference in the assay on E. coli IMP-4 (4 mg/L inhibitor); −2 log2 difference with E. coli IMP-4 (8 mg/L inhibitor); −1 log2 difference in [4] (2 mg/L inhibitor); −1 log2 difference in assay [4] (4 mg/L inhibitor); −1 log2 difference in assay [4] (8 mg/L inhibitor). Further, the “Change in MIC value of meropenem” value is listed as −2 log2 difference in assay [5] (2 mg/L inhibitor); −2 log2 difference in assay [5] (4 mg/L inhibitor); −2 log2 difference in assay [5] (8 mg/L inhibitor); −1 log2 difference in the assay with E. coli VIM-1 (2 mg/L inhibitor); 0 log2 difference with E. coli VIM-1 (4 mg/L inhibitor); −1 log2 difference in the assay on E. coli VIM-1 (8 mg/L inhibitor). For the same molecule, the “Change in MIC value of meropenem” value in [6] (2 mg/L inhibitor) is on record as −1 log2 difference; in assay [6] (4 mg/L inhibitor) it was −1 log2 difference; in assay [6] (8 mg/L inhibitor) it was 0 log2 difference; in [7] (2 mg/L inhibitor) it was −1 log2 difference; in [7] (4 mg/L inhibitor) it was −1 log2 difference; in [7] (8 mg/L inhibitor) it was −1 log2 difference. Moreover, the “Change in MIC value of meropenem” value in [8] (2 mg/L inhibitor), in assay [8] (4 mg/L inhibitor) and in [8] (8 mg/L inhibitor) was 0 log2 difference throughout. Also, the IC50 is 0.126 µM in [1], 0.501 µM on IMP-1 (Imipenemase-1), 0.0398 µM in assay [2] and 0.631 µM in [3].
Regarding `CC(C)c1csc2cc(C(=O)O)[nH]c12` [Example 7, 3-isopropyl-4H-thieno[3,2-b]pyrrole-5-carboxylic acid], the half-maximal inhibitory concentration (IC50) in assay [1] was 20 µM; against IMP-1 (Imipenemase-1), above 63.1 µM; in assay [2], 39.8 µM; in assay [3], above 251 µM.
In the same order, the values of `O=C(O)c1cc2scc(C3CC3)c2[nH]1` [Example 8, 3-cyclopropyl-4H-thieno[3,2-b]pyrrole-5-carboxylic acid] are 39.8 µM, above 251 µM, 126 µM and above 251 µM.
For `CC(=O)Nc1cccc(-c2c(C(=O)O)[nH]c3c(Br)csc23)c1` [Example 9, 6-(3-acetamidophenyl)-3-bromo-4H-thieno[3,2-b]pyrrole-5-carboxylic acid] the same measures were 0.0501 µM, 12.6 µM, 0.316 µM and 1.58 µM.
Regarding `CS(=O)(=O)Cc1ccc(-c2c(C(=O)O)[nH]c3c(C4CC4)csc23)cc1Cl` [Example 18, 6-(3-chloro-4-((methylsulfonyl)methyl)phenyl)-3-cyclopropyl-4H-thieno[3,2-b]pyrrole-5-carboxylic acid], the “Change in MIC value of meropenem” value (in the assay on E. coli IMP-4 (2 mg/L inhibitor); in the assay on E. coli IMP-4 (4 mg/L inhibitor); in the assay with E. coli IMP-4 (8 mg/L inhibitor); in assay [4] (2 mg/L inhibitor); in [4] (4 mg/L inhibitor); in assay [4] (8 mg/L inhibitor)) was 0 log2 difference each time. Also, the “Change in MIC value of meropenem” value in assay [5] (2 mg/L inhibitor) is on record as 0 log2 difference; in assay [5] (4 mg/L inhibitor), 0 log2 difference; in assay [5] (8 mg/L inhibitor), 0 log2 difference; in the assay on E. coli VIM-1 (2 mg/L inhibitor), −1 log2 difference; in the assay with E. coli VIM-1 (4 mg/L inhibitor), −1 log2 difference; with E. coli VIM-1 (8 mg/L inhibitor) it was −1 log2 difference. Moreover, the “Change in MIC value of meropenem” value in assay [6] (2 mg/L inhibitor) is on record as −3 log2 difference; in assay [6] (4 mg/L inhibitor) it was −2 log2 difference; in [6] (8 mg/L inhibitor), −3 log2 difference; in assay [7] (2 mg/L inhibitor), −2 log2 difference; in assay [7] (4 mg/L inhibitor), −2 log2 difference; in assay [7] (8 mg/L inhibitor), −2 log2 difference. Also, the “Change in MIC value of meropenem” value in assay [8] (2 mg/L inhibitor), in [8] (4 mg/L inhibitor) and in [8] (8 mg/L inhibitor) was 0 log2 difference in each case.
`C[C@@H](O)[C@H]1C(=O)N2C(C(=O)O)=C(S[C@@H]3CN[C@H](C(=O)N(C)C)C3)[C@H](C)[C@H]12` [meropenem, reference compound]: the MIC in assay [4] (Klebsiella pneumoniae, NDM1, read-out: MER MIC) was above 128 µg/mL; in the assay with E. coli VIM-1 (Escherichia coli, VIM1, read-out: MER MIC), 0.25 µg/mL (≈ 0.652 µM); in [8] (Pseudomonas aeruginosa, VIM2, read-out: MER MIC) it was 32 µg/mL (≈ 83.4 µM).

What is called IC50 is the midpoint of a concentration-inhibition curve. The low end stands for inhibition by little substance, the high end for a need for much substance. The MIC is the lowest concentration that inhibits growth of the organism.

The record behind these values is patent US20210137886A1, “INHIBITORS OF METALLO-BETA-LACTAMASES” (Oxford University Innovation Limited, priority 2017, published 2021).
